The text below walks through data of patent publication US20090247495A1, “CU[…] AND USES THEREOF” (priority 2007, published 2009).

Converted amounts (≈) assume the structure as drawn.

One assay has as its system Ras-GTP. As to the kind of experiment: GTPase pull-down assay (GST-Raf1-RBD) in K562 cells. The assay is classed as cell-based, human. As to conditions: 50 μM, 2 minutes to 4 hours. On the procedure: Lysate with 500 μg protein were used to determined the Ras-GTP content by the Glutathione S-transferase(GST)-RBD(Ras-binding domain of Raf) pull down assay. The treated and control cells were lysed in lysis buffer (25 mMTris-HCl, pH7.5, 150 mM NaCl, 5 mM MgCl2, 1% NP-40, 1 mM DTT and 5% glycerol) for 5 minutes at 4° C. Soluble cell lysates were obtained by centrifuged at 17000 g for 5 minutes. 500 μg cell lysate were collected and incubated with 80 μg GST-Raf1-RBD in 50 mM Tris-HCl, pH7.2, 150 mM NaCl, 0.5% Triton X-100, 5 mM MgCl2, 1 m MDTT and 10% glycerol for 1 hour at 4° C. The beads were washed with lysis buffer for 3 times and then resuspended and boiled in 2×sample buffer at 100° C. for 5 minutes. 25 μsupernatants were collected by centrifuged at 7200 g for 2 minutes and then resolved in 15% SDS-PAGE followed by western blot analysis using anti-Ras antibody. • 6.1.8 Laboratory-Scale Preparation of Cucurbitacin B and Cucurbitacin D
In order to further investigate if cucurbitacin B block the Stat3 activation is truly through Erk pathway in K562 cells, the ability of cucurbitacin B to inhibit the Ras/Raf/Mek/Erk pathway was determined by measuring Ras-GTP, phosphorylation of c-Raf, Mek1/2, Erk1/2 and Elk-1 in K562 cells. The cells were incubated with 50 μM cucurbitacin B for the indicated time intervals (2 minutes, 5 minutes, 10 minutes, 30 minutes, 1 hour and 4 hours). […]

In assay [1] the test system is colon cancer cell line (HT29). As to the kind of experiment: MTT cell cytotoxicity assay, HT29. As to conditions: Homo sapiens, HT-29; 48 hours; read-out: IC50. The format is cell-based, human. How it is done:
Three human cancer cell lines (HepG2(liver), HT29(colon) and MCF-7(breast)) were purchased from American Type Culture Collection (ATCC, Manassas, Va., USA). The cells were cultured in RPMI 1640 medium supplemented with 5% (v/v) fetal bovine serum (FBS) and 100 units/ml penicillin and streptomycin (Invitrogen Life Technologies) in a humidified 5% CO2 atmosphere at 37° C.
(§1) The cytotoxic effect of CuB and CuD on these three cancer cell lines were determined using MTT (3-[4,5-dimethylthiazol-2-yl]-2,5-diphenyl tetrazolium bromide) labeled cell cytotoxicity assay. A total of 1×10^4 cells were seeded into a 96-well plate for 24 hours prior to cucurbitacin B (CuB) or cucurbitacin D (CuD) treatment. They were then treated with different dosages of CuB/CuD for 48 hours. After the treatment, 20 μl of MTT (5 mg/ml) was added to each well and incubated for 4 hrs. Then the medium was discarded and 100 μl of dimethyl sulfoxide was added. The absorbance at 570 nm was then measured by using FLUOstar OPTIMA equipment (BMG, LABTECH GmbH, Germany). The percentage of inhibition against different dosages of CuB/CuD were plotted using the Prism software and the 50% inhibition concentration (IC50) were obtained.
Background: Tetrazolium dyes change colour on reduction, which living cells bring about.

Assay [2] concerns Human GBM cell lines U87, T98G, U118, U343, U373. As to the kind of experiment: MTT cell cytotoxicity assay, glioblastoma multiforme cell lines. The format is cell-based. As to conditions: 48 hours, range over the cell lines. How it is done:
Human GBM cell lines U87, T98G, U118, U343, U373 cell lines were maintained in Dulbecco's modified Eagle's medium (Gibco, BRL) with 10% fetal calf serum (Gemini Bio-Products, Calabasas, Calif., USA), 10 U/ml penicillin G and […] streptomycin. They were all incubated at 37° C. in 5% CO2 atmosphere.
The cytotoxic effect of CuB on these cancer cell lines were determined using MTT (3-[4,5-dimethylthiazol-2-yl]-2,5-diphenyl tetrazolium bromide) labeled cell cytotoxicity assay. A total of 1×10^4 cells were seeded into a 96-well plate for 24 hours prior to cucurbitacin B (CuB) treatment. They were then treated with different dosages of CuB for 48 hours. After the treatment, 20 μl of MTT (5 mg/ml) was added to each well and incubated for 4 hrs. Then the medium was discarded and 100 μl of dimethyl sulfoxide was added. The absorbance at 570 nm was then measured by a microplate reader and the 50% inhibition concentration (IC50) were obtained. Results for untreated control cells were set as 100%, with remaining data shown as a percentage of control. Data represented the mean±standard error of triplicate samples.

A further assay deals with PARP. Nature of the assay: Western blot of PARP cleavage in HL60 cells. The format is cell-based, human. How it is done:
(§2) Control cells, as well as cells treated with cucurbitacin B or cucurbitacin D, were harvested and collected by centrifugation. Whole cell extracts were then prepared by lysing the cells using 4% sodium dodecyl sulfate (SDS) gel sample buffer. Cell extracts were boiled for 10 min and chilled on ice, subjected to 12% SDS-polyacrylamide gel electrophoresis, and transferred to a PVDF membrane. Each membrane was cut into to two pieces with one piece incubated at 4° C. overnight with antibodies against cell cycle signaling proteins, such as ERK, phosphorlated-ERK, p38, phosphorlated-p38, Cyclin E, Retinoblastoma, phosphalated-Retinoblastoma and c-myc, and apoptotic protein (PARP). β-actin was used as a control for protein loading. All antibodies were obtained from Cell signaling Technologies (USA). Then membranes were incubated at 37° C. for 1 h with secondary antibody conjugated with peroxidase, and the signal was detected using chemiluminescence detection reagent. The relative protein level was calculated as the ratio of the optical density of the protein of interest to that of β-actin.
On the technique in general: In western blotting, separated proteins are transferred to a membrane and probed.

For the next assay, the system named is MAPK signaling pathway. As to the kind of experiment: Western blot of MAPK / cell cycle signaling proteins in HL60 cells. The assay is classed as cell-based, human. On the procedure: as §2
Assay [3] deals with human pancreatic cancer cell line SW. Nature of the assay: MTT cell cytotoxicity assay, SW pancreatic cancer cell line. The format is cell-based. As to conditions: 48 hours. On the procedure: A human pancreatic cancer cell line SW was purchased from Institute of Biochemistry and Cell Biology, Shanghai Institutes for Biological Sciences, Chinese Academy of Sciences (SIBCB, CAS, China). SW cell was grown in RPMI 1640 medium supplemented with 10% FBS and maintained in a humidified 5% CO2 atmosphere at 37° C. and the culture medium was changed once in 2 days.
as §1, with “CuB” for “CuB and CuD”, “SW” for “these three cancer”, “was” for “lines were”, “(CuB)” for “(CuB) or cucurbitacin D (CuD)”, “CuB” for “CuB/CuD”, “by” for “by using”

Consider `CC(=O)OC(C)(C)/C=C/C(=O)[C@](C)(O)C1[C@H](O)C[C@@]2(C)C3CC=C4C(C[C@H](O)C(=O)C4(C)C)[C@]3(C)C(=O)C[C@]12C` (stereo partly drawn) [cucurbitacin B], for which the Ras-GTP activation result in the assay with Ras-GTP is on record as “no significant change”. Moreover, the half-maximal inhibitory concentration (IC50) in assay [1] was 0.31 µg/mL (≈ 0.555 µM); in assay [3] it was around 274 nM. Moreover, the GI50 in assay [2] is 50 to 100 nM. For the same compound, the “apoptosis marker PARP” value with PARP is “cleavage of PARP”. Further, in the assay on MAPK signaling pathway, the “regulation of ERK, cyclin E, retinoblastoma phosphorylation and c-myc” value was “ERK activation, followed by cyclin E down-regulation, inhibition of retinoblastoma's phosphorylation, and ultimately down-regulation of c-myc”.

What is called IC50 is the midpoint of a concentration-inhibition curve. A word on the GI50: it is the concentration at which growth is held to half of that of the control. Read a high GI50 as less potent growth inhibition.
